Measured values as given in paper PMC12155096 (International Journal of Molecular Sciences, 2025).
Read-outs that look alike come from different tables or passages of the source.

Key:
[1] = molecular target: T1, human CYP1A2 (Homo sapiens, UniProt P05177); assay: biochemical
T1 sequence (P05177 1-516): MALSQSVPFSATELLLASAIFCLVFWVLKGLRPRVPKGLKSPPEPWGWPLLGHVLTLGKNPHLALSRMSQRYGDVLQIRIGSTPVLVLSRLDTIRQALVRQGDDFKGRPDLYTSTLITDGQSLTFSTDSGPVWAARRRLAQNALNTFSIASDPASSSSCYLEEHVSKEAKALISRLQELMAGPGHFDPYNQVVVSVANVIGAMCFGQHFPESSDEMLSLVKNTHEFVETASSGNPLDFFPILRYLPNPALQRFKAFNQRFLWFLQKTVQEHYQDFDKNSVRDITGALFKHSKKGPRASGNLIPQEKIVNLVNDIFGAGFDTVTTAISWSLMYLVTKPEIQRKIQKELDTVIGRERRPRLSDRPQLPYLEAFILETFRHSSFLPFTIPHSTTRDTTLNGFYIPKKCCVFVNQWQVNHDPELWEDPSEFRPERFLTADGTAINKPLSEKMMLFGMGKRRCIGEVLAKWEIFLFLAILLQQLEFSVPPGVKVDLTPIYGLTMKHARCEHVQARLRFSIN

[2] = molecular target: Photinus pyralis (firefly) luciferase (Photinus pyralis, UniProt P08659); assay: biochemical; type: biochemical
Sequence of Photinus pyralis (firefly) luciferase (P08659 whole entry): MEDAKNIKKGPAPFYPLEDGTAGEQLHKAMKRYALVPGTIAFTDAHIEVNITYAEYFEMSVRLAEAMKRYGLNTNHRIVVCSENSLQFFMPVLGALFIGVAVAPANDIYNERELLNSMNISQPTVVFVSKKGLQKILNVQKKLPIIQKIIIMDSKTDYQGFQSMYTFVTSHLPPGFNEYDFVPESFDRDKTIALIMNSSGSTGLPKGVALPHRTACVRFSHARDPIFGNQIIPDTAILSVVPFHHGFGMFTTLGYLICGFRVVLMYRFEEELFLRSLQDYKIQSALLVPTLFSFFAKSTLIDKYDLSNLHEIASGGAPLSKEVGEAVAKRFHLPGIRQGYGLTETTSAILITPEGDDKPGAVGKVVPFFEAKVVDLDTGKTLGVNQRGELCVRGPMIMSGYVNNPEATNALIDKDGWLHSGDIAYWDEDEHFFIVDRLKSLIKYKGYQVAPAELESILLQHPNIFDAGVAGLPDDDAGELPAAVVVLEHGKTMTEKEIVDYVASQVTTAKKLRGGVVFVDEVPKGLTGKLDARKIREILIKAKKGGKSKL

[3] = molecular target: human CYP2D6 (Homo sapiens, UniProt P10635)
Sequence of human CYP2D6 (P10635 whole entry): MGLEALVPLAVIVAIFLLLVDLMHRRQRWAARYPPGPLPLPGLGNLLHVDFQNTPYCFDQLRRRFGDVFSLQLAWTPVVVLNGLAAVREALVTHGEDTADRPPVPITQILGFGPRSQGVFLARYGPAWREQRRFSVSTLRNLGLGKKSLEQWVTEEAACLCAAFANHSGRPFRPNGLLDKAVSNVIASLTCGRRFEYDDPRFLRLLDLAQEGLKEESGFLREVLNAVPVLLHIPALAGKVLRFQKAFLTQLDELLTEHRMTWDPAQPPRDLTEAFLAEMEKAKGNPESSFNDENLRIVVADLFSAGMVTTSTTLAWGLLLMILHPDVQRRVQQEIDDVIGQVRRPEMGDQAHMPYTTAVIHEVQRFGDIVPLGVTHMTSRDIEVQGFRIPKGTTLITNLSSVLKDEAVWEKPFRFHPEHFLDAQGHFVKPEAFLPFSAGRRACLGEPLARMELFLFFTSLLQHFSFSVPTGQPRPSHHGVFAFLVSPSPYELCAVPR

[4] = molecular target: T2, human CYP2C9 (Homo sapiens, UniProt P11712); assay: biochemical
T2 sequence (P11712 whole entry): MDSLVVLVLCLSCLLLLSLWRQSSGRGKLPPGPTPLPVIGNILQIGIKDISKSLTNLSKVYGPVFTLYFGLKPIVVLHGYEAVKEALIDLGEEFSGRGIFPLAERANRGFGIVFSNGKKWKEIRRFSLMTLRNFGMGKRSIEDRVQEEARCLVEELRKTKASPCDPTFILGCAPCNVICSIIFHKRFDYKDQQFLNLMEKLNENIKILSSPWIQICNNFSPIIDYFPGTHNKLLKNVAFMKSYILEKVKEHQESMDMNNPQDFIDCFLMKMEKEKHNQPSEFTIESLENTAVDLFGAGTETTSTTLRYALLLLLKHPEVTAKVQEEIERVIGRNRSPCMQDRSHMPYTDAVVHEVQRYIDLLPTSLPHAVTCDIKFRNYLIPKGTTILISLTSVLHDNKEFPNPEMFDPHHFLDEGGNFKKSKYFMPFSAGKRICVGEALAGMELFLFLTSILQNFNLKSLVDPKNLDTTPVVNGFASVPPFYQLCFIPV

[5] = molecular target: T3, human CYP2C19 (Homo sapiens, UniProt P33261); assay: biochemical
T3 sequence (P33261 whole entry): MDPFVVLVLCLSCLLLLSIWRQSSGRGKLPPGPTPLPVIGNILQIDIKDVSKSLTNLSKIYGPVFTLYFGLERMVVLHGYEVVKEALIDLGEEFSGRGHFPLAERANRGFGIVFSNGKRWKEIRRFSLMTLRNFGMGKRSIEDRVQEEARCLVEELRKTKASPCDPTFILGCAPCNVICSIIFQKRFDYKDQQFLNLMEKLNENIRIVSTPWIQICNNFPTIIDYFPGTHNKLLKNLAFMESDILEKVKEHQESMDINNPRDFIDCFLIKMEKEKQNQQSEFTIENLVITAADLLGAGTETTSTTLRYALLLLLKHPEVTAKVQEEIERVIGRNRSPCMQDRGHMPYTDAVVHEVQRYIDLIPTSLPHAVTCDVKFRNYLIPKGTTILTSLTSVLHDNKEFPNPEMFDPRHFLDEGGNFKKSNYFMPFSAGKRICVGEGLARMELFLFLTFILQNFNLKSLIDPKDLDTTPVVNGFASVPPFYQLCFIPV

[6] = molecular target: CYP3A4 (Homo sapiens, UniProt P08684); assay: biochemical
Sequence of CYP3A4 (P08684 whole entry): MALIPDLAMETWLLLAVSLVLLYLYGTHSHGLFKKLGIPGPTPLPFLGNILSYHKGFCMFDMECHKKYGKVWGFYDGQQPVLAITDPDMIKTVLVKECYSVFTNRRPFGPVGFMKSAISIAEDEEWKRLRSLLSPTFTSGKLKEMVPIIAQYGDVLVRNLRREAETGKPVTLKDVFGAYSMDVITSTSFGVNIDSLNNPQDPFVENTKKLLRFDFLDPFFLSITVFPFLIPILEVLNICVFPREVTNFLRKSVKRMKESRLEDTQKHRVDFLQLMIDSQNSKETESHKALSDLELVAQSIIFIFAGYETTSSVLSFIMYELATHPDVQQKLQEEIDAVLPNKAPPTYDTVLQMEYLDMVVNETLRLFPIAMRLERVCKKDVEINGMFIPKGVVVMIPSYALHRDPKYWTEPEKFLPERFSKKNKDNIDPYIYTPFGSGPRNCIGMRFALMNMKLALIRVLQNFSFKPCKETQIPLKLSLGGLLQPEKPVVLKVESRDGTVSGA

[7] = molecular target: T1, human CYP1A2
[8] = molecular target: T2, human CYP2C9
[9] = molecular target: T3, human CYP2C19
[10] = CYP2C9 IC50 (half-maximal inhibitory concentration)
[11] = CYP2C19 IC50 (half-maximal inhibitory concentration)
[12] = CYP3A4 IC50 (half-maximal inhibitory concentration)
[13] = CYP1A2 AC50 (half-maximal activity concentration)
[14] = CYP2C19 AC50 (half-maximal activity concentration)
[15] = CYP3A4 AC50 (half-maximal activity concentration)

For `C=CC(=O)OCCn1c(=O)n(CCOC(=O)C=C)c(=O)n(CCOC(=O)C=C)c1=O`, the IC50 [1] was 58.1 µM, the “Luciferase IC50 (half-maximal inhibitory concentration)” value [2] was “Inactive” and the “CYP2D6 IC50 (half-maximal inhibitory concentration)” value [3] was “Inactive”. It also gave an IC50 [4] of 35.7 µM, an IC50 [5] of 4.01 µM and an IC50 [6] of 0.25 µM.
In the case of `COC(=O)N(C(=O)N1COC2(C(=O)OC)Cc3cc(Cl)ccc3C2=N1)c1ccc(OC(F)(F)F)cc1` (racemic) [(+-)-Indoxacarb], the “Luciferase IC50 (half-maximal inhibitory concentration)” value [2] is reported as “Inactive”, the “CYP2D6 IC50 (half-maximal inhibitory concentration)” value [3] is reported as “Inactive” and the IC50 [4, 10] is reported as 4.76 µM. The “CYP1A2 IC50 (half-maximal inhibitory concentration)” value [7] was “Inactive”, the IC50 [5, 11] was 0.28 µM and the IC50 [6, 12] was 6.03 µM.
`O=C(Cc1ccccc1)c1ccccc1` [1,2-Diphenylethanone] was tested, and the AC50 [1, 13] was 12.6 µM, the “CYP2D6 AC50 (half-maximal activity concentration)” value (from here on “CYP2D6 AC50”) [3] was “Inconclusive inhibitor” and the “CYP2C9 AC50 (half-maximal activity concentration)” value (shortened to “CYP2C9 AC50”) [8] was “Inconclusive inhibitor”. For the same compound, the AC50 [5, 14] was 12.8 µM and the AC50 [6, 15] was 7.68 µM.
With `O=C1c2ccccc2C(=O)c2c(Cl)cccc21` [1-Chloroanthraquinone] the AC50 [1] was 0.05 µM, the IC50 [1] was 0.05 µM and the “Luciferase IC50 (half-maximal inhibitory concentration)” value [2] was “Inactive”. For the same compound, the “CYP2D6 IC50 (half-maximal inhibitory concentration)” value [3] was “Inactive”, the AC50 [4] was 12.6 µM and the IC50 [4] was 12.6 µM. For the same compound, the AC50 [5] was 13.9 µM, the IC50 [5] was 13.9 µM and the AC50 [6] was 2.37 µM.
`CC(=O)c1ccc2ccccc2c1` [2'-Acetonaphthone] was tested, and the AC50 [1, 13] was 9.34 µM, the “CYP2D6 AC50” value [3] was “Inconclusive inhibitor” and the “CYP2C9 AC50” value [8] was “Inactive”. For the same compound, the AC50 [5, 14] was 45 µM and the AC50 [6, 15] was 34.4 µM.
In the case of `COC(=O)COc1ccc(Cl)cc1Cl` [2,4-D-methyl], the AC50 [1, 13] is reported as 15.4 µM, the “CYP2D6 AC50” value [3] is reported as “Inactive” and the “CYP2C9 AC50” value [8] is reported as “Inactive”. The AC50 [5, 14] was 71.9 µM and the AC50 [6, 15] was 44 µM.
In the case of `Nc1ccc2c3c(cccc13)-c1ccccc1-2` [3-Aminofluoranthene], the IC50 ([1]; CYP1A2 IC50) is reported as 0.13 µM, the IC50 [2] is reported as 27.8 µM and the “CYP2D6 IC50” value [3] is reported as “Inactive”. The IC50 ([4]; CYP2C9 IC50) was 34.7 µM, the IC50 ([5]; CYP2C19 IC50) was 21.2 µM and the IC50 ([6]; CYP3A4 IC50) was 19.8 µM.
`Cc1ccc2cc3c(ccc4ccccc43)c3c2c1CC3` [3-Methylcholanthrene] was tested, and the IC50 ([1]; CYP1A2 IC50) was 0.39 µM, the IC50 [2] was 6.94 µM and the “CYP2D6 IC50” value [3] was “Inactive”. For the same compound, the IC50 ([4]; CYP2C9 IC50) was 6.43 µM, the IC50 ([5]; CYP2C19 IC50) was 22.4 µM and the IC50 ([6]; CYP3A4 IC50) was 8.02 µM.
With `COc1ccc(COC(C)=O)cc1` [4-Methoxybenzyl acetate] the AC50 [1] was 28.9 µM, the “CYP2D6 AC50” value [3] was “Inactive” and the “CYP2C9 AC50” value [8] was “Inactive”. It also gave an AC50 [5] of 53.7 µM and an AC50 [6] of 40.8 µM.
With `Cc1c2ccccc2c(C)c2c1ccc1ccccc12` [7,12-Dimethylbenz(a)anthracene] the IC50 ([1]; CYP1A2 IC50) was 0.5 µM, the IC50 [2] was 32.7 µM and the “CYP2D6 IC50” value [3] was “Inactive”. The IC50 ([4]; CYP2C9 IC50) was 27.3 µM, the IC50 ([5]; CYP2C19 IC50) was 6.09 µM and the IC50 ([6]; CYP3A4 IC50) was 22.6 µM.
`O=[N+]([O-])c1cccc2cccnc12` [8-Nitroquinoline] was tested, and the AC50 [1, 13] was 33.9 µM, the “CYP2D6 AC50” value [3] was “Inactive” and the “CYP2C9 AC50” value [8] was “Inactive”. The “CYP2C19 AC50 (half-maximal activity concentration)” value [9] was “Inconclusive inhibitor” and the AC50 [6, 15] was 38 µM.
In the case of `O=C1c2ccccc2-c2ccccc21` [9-Fluorenone], the AC50 [1] is reported as 0.45 µM, the IC50 [1] is reported as 0.45 µM and the IC50 [2] is reported as 67.7 µM. For the same compound, the “CYP2D6 IC50 (half-maximal inhibitory concentration)” value [3] was “Inactive”, the AC50 [4] was 67.7 µM and the IC50 [4] was 67.7 µM. The AC50 [5] was 43.8 µM, the IC50 [5] was 43.8 µM and the AC50 [6] was 10.4 µM.
For `COc1ccc(-c2ccccc2)cc1NNC(=O)OC(C)C` [Bifenazate], the IC50 ([1]; CYP1A2 IC50 (half-maximal inhibitory concentration)) was 4.75 µM, the “Luciferase IC50 (half-maximal inhibitory concentration)” value [2] was “Inactive” and the IC50 [4, 10] was 2.33 µM. It also gave an IC50 [5, 11] of 0.49 µM and an IC50 [6, 12] of 1.51 µM.
For `COC(=O)c1cccc(C(=O)OC)c1` [Dimethyl isophthalate], the AC50 [1] was 9.71 µM, the “CYP2D6 AC50” value [3] was “Inactive” and the “CYP2C9 AC50” value [8] was “Inactive”. The “CYP2C19 AC50 (half-maximal activity concentration)” value [9] was “Inconclusive inhibitor” and the AC50 [6] was 52.6 µM.
